Measurements reported in patent US20250152719A1, “FUSED IMIDE DERIVATIVE” (Chia Tai Tianqing Pharmaceutical Group Co., Ltd., priority 2021, published 2025).

Tests used:
[1] = In vitro liver microsomal stability, mouse; details: 0.5 mg/mL microsomes, NADPH, 37° C., 1 h
Method: Liver microsome incubation samples were prepared by mixing a PBS buffer (pH 7.4), a liver microsome solution (0.5 mg/mL), a test compound, and an NADPH+MgCl2 solution and incubated at 37° C. and 300 rpm for 1 h. Zero-hour samples were prepared by mixing a PBS buffer (pH 7.4), a liver microsome solution (0.5 mg/mL), and a test compound. An acetonitrile solution containing an internal standard was added to the samples, and supernatants were prepared by protein precipitation, diluted, and then assayed by LC/MS/MS.

BTK = BTK (Homo sapiens (Human), UniProt Q06187); assay: BTK degradation in OCI-LY10 cells (Total-BTK HTRF kit); format: cell-based; details: 24 (or 6) h incubation; for DC50: DC50 = concentration when degradation rate reaches 50%, read-out: OCI-LY10 cell BTK degradation DC50; for Dmax / BTK degradation in OCI-LY10 cells Dmax: maximum degradation rate
Method: The detection was carried out using the Total-BTK Kits (cisbio, 63ADK064PEH), and 4× Supplemented Lysis buffer was prepared using the Blocking reagent stock solution (100×) and Lysis buffer stock solution (4×). Premixed antibody solutions were prepared using the Detection buffer, Total-BTK d2 antibody, and Total-BTK Eu Cryptate antibody.
OCI-LY10 cells in a good growth state were collected and added to a centrifuge tube, adjusted to a cell density of 4.17×10^6 cells/mL, and seeded in a 384-well plate (12 μL/well). The cells were incubated overnight in a cell incubator. Compounds were added using a nanoliter pipettor such that the final concentrations of the compounds were 100 nM-0.098 nM; the addition was performed in duplicate, and meanwhile, a control was set. After another 24 (or 6) h of incubation in the cell incubator, the 4× Supplemented Lysis buffer was added at 4 μL/well to lyse the cells. After the cells were shaken for 40 min at room temperature, the Premixed antibody solutions were added at 4 μL/well, and the cells were left to stand overnight at room temperature. Fluorescence values of the cells were detected at 665 nm/620 nm using an Envision microplate reader, the four-parameter analysis was performed, the dose-response curves were fit, and DC50 (the concentration of the drug when the degradation rate reaches 50%) and Dmax (the maximum degradation rate) were calculated.

OCI-LY10 cells = assay: Inhibitory activity on OCI-LY10 cell proliferation (CCK-8); format: cell-based
Method: (§1) OCI-LY10 cells in a good growth state were collected and added to a centrifuge tube, adjusted to a cell density of 1×10^5 cells/mL, and seeded in a 96-well plate (100 μL/well). The cells were incubated overnight in a cell incubator. Compounds were added using a nanoliter pipettor such that the final concentrations of the compounds were 5000 nM-0.31 nM; the addition was performed in duplicate, and meanwhile, a control was set. After another 72 h of incubation in the cell incubator, 10 μL of CCK-8 (CK04, PP799) was added. After 2.5 h of incubation in the cell incubator, absorbance values were detected at 450 nm using an Envision microplate reader, the four-parameter analysis was performed, the dose-response curves were fit, and IC50 was calculated.

TMD8-BTK(C481S) cells = assay: Inhibitory activity on TMD8-BTK(C481S) cell proliferation (CCK-8); format: cell-based; details: 72 h incubation
Method: as §1, with “TMD8-BTK(C481S)” for “OCI-LY10”, “8×10^4” for “1×10^5”, “4” for “2.5”

[2] = tested on: OCI-LY10-BTK(C481S) cells; assay: Inhibitory activity on OCI-LY10-BTK(C481S) cell proliferation (CCK-8); format: cell-based; details: 72 h incubation, IC50 per method, unit inferred
Method: OCI-LY10(C481S) cells in the logarithmic growth phase were collected and added to a centrifuge tube, adjusted to a cell density of 5×10^4 cells/mL, and seeded in a 96-well plate (100 μL/well). Meanwhile, compounds were added using a nanoliter pipettor such that the final concentrations of the compounds were 5000 nM-0.31 nM; the addition was performed in duplicate, and meanwhile, a control was set. After another 72 h of incubation in the cell incubator, the detection reagent CCK-8 (manufacturer: Dojindo Laboratories, Beijing; 10 μL/well) was added. After 3 h of incubation in the cell incubator, absorbance values were detected at 450 nm using a PerkinElmer Envision microplate reader, the four-parameter analysis was performed, the dose-response curves were fit, and IC50 was calculated.

Mouse pharmacokinetics = format: in vivo, ICR mice
Method: ICR mice weighing 18-22 g were randomized into groups of 9 after 3-5 days of acclimatization and then intragastrically given the test compound solution at a dose of 10 mg/kg. Plasma samples to be tested were prepared by taking blood from the orbit at time points of 15 min, 30 min, 1 h, 2 h, 3 h, 4 h, 6 h, 8 h, 10 h, and 24 h. 20 μL of each plasma sample to be detected and a standard curve sample were taken, and an acetonitrile solution containing an internal standard was added. […] Pharmacokinetic parameters were fitted using a non-compartmental model (see Table 5).

TMD-8 xenograft tumors = assay: In vivo drug efficacy, TMD-8 mouse subcutaneous xenograft tumors; set-up: species or system NOD-SCID mice; details: 30 mg/kg, qd, i.g.; for TGI d 17: 16 days, tumor weight on day 17; for TV on d 0 Mean ± SD: day 0 (baseline at grouping); for TV on d 12 Mean ± SD: day 12; for TV on d 15 Mean ± SD: day 15
Method: TMD-8 mouse subcutaneous xenograft tumors: TMD-8 (WT) cells at a concentration of 1×10^8/mL were inoculated under aseptic conditions into the right side armpit of NOD-SCID mice at 0.1 mL/mouse. After subcutaneous grafting, the animals were divided into groups with 6 animals in each group when the tumor volume reached about 188 mm^3 (or 200 mm^3):
model group: vehicle, 6 mice; compound administration groups: 30 mg/kg, qd, i.g., 6 mice.
The vehicle or the test compound was intragastrically given at a volume of 4 mL/kg, once daily for 16 consecutive days. The tumor volume was measured 2-3 times a week, and meanwhile, the mice were weighed and the data were recorded; the general behaviors of the animals were observed every day. After all dosing was complete, the animals were sacrificed on day 17, and the tumors were removed and weighed.
The tumor volume and the tumor growth inhibition were calculated using the following formulae:
Tumor volume (TV)=(Length×Width^2)/2.
Tumor growth inhibition (TGI)=(1−tumor weight of treatment group/tumor weight of model group)×100%.

[3] = Homo sapiens, OCI-Ly10, 72 h incubation

Sequence of BTK (Q06187 whole entry): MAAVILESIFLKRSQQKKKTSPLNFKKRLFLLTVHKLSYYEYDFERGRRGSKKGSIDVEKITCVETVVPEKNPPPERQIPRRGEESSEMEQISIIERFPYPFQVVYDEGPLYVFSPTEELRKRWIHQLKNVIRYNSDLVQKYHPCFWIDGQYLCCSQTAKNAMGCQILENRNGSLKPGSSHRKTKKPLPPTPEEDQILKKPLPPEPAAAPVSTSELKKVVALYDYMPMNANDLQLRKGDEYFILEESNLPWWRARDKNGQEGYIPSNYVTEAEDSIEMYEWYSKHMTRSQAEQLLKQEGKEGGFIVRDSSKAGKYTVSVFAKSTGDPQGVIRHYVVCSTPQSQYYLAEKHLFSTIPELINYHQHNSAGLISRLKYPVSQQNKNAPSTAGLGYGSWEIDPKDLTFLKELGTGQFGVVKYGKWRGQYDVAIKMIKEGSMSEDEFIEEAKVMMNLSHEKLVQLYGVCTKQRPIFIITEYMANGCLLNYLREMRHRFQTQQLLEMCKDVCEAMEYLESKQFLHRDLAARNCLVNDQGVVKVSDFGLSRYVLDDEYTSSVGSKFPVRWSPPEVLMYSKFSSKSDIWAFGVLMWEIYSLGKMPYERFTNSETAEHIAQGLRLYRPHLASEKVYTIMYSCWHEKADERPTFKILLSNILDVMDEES

Dmax (BTK; OCI-Ly10, OCI-LY10 cells)	IC50 (OCI-LY10 cells; [3])	IC50 ([2]; 72 h)	SMILES	further results
99%	< 0.31 nM		CN1CCN([C@@H]2CCCN(c3cnc(C(N)=O)c(Nc4ccc(C5CCN(C[C@@H]6CCC(c7ccc8c(C9CCC(=O)NC9=O)noc8c7)C6)CC5)cc4)n3)C2)C1=O (stereo partly shown) [Compound 7]	Mouse liver microsome Residuals at 60 min [1]: 42.7%; DC50 (BTK; OCI-LY10 cells): < 0.098 nM
99%	< 0.31 nM		CN1CCN([C@@H]2CCCN(c3cnc(C(N)=O)c(Nc4ccc(C5CCN(CC6CCN(c7ccc8c(C9CCC(=O)NC9=O)noc8c7)CC6)CC5)cc4)n3)C2)C1=O (stereo partly shown) [Compound 8]	Mouse liver microsome Residuals at 60 min [1]: 54.7%; DC50 (BTK; OCI-LY10 cells): < 0.098 nM; IC50 (TMD8-BTK(C481S) cells; 72 h): 6.9 nM
			CN1CCN([C@@H]2CCCN(c3cnc(C(N)=O)c(Nc4ccc(C5CCN(C[C@@H]6CCC(n7ccc8c9c(C%10CCC(=O)NC%10=O)noc9ccc87)C6)CC5)cc4)n3)C2)C1=O (stereo partly shown) [Compound 15]	DC50 (BTK; OCI-LY10 cells): < 0.098 nM; BTK degradation in OCI-LY10 cells Dmax (BTK; OCI-LY10 cells): 100%; IC50 [2]: < 0.31 nM; IC50 (OCI-LY10 cells; 72 h incubation): < 0.31 nM
> 90%	< 0.31 nM	0.5 nM	CN1CCN([C@@H]2CCCN(c3cnc(C(N)=O)c(Nc4ccc(N5CCC(CN6Cc7ccc8c(C9CCC(=O)NC9=O)noc8c7C6)CC5)cc4)n3)C2)C1=O (stereo partly shown) [Compound 24]	
> 90%	< 0.31 nM	0.26 nM	CN1CCN([C@@H]2CCCN(c3cnc(C(N)=O)c(Nc4ccc(N5CCC(CN6CCc7ccc8c(C9CCC(=O)NC9=O)noc8c7C6)CC5)cc4)n3)C2)C1=O (stereo partly shown) [Compound 26]	
> 90%	< 0.31 nM	0.29 nM	CN1CCN([C@@H]2CCCN(c3cnc(C(N)=O)c(Nc4ccc(N5CCC(CN6CCc7c(ccc8c(C9CCC(=O)NC9=O)noc78)C6)CC5)cc4)n3)C2)C1=O (stereo partly shown) [Compound 28]	
> 90%	< 0.31 nM	0.35 nM	CN1CCN([C@@H]2CCCN(c3cnc(C(N)=O)c(Nc4ccc(N5CCC(CN6Cc7cc8onc(C9CCC(=O)NC9=O)c8cc7C6)CC5)cc4)n3)C2)C1=O (stereo partly shown) [Compound 29]	
97%	< 0.31 nM	0.19 nM	CN1CCN([C@@H]2CCCN(c3cnc(C(N)=O)c(Nc4ccc(N5CCC(N6CCc7ccc8c(C9CCC(=O)NC9=O)noc8c7C6)CC5)cc4)n3)C2)C1=O (stereo partly shown) [Compound 34]	DC50 (BTK; OCI-LY10 cells): < 0.098 nM
> 90%	< 0.31 nM	0.12 nM	CN1CCN([C@@H]2CCCN(c3cnc(C(N)=O)c(Nc4ccc(N5CCC(N6CCc7c(ccc8c(C9CCC(=O)NC9=O)noc78)C6)CC5)cc4)n3)C2)C1=O (stereo partly shown) [Compound 35]	
95%	< 0.31 nM	0.024 nM	CN1CCN([C@@H]2CCCN(c3cnc(C(N)=O)c(Nc4ccc(N5CCC(N6CCc7ccc8c(C9CCC(=O)NC9=O)noc8c7CC6)CC5)cc4)n3)C2)C1=O (stereo partly shown) [Compound 36]	DC50 (BTK; OCI-LY10 cells): < 0.098 nM
> 90%		0.51 nM	CN1CCN([C@@H]2CCCN(c3cnc(C(N)=O)c(Nc4ccc5c(c4)CCN(CC4Cc6ccc7c(C8CCC(=O)NC8=O)noc7c6C4)C5)n3)C2)C1=O (stereo partly shown) [Compound 40]	
	< 0.31 nM		CN1CCN([C@@H]2CCCN(c3cnc(C(N)=O)c(Nc4ccc5c(c4)CCN(CC4Cc6ccc7c(C8CCC(=O)NC8=O)noc7c6C4)C5)n3)C2)C1=O (stereo partly shown) [Compound 41]	BTK degradation in OCI-LY10 cells Dmax (BTK; OCI-LY10 cells): >90%; IC50 [2]: 0.34 nM
> 90%		0.56 nM	CN1CCN([C@@H]2CCCN(c3cnc(C(N)=O)c(Nc4ccc5c(c4)CN(CC4Cc6ccc7c(C8CCC(=O)NC8=O)noc7c6C4)C5)n3)C2)C1=O (stereo partly shown) [Compound 44]	
> 90%		0.66 nM	CN1CCN([C@@H]2CCCN(c3cnc(C(N)=O)c(Nc4ccc5c(c4)CN(C4CN(CC6Cc7ccc8c(C9CCC(=O)NC9=O)noc8c7C6)C4)C5)n3)C2)C1=O (stereo partly shown) [Compound 46]	
			CN1CCN([C@@H]2CCCN(c3cnc(C(N)=O)c(Nc4ccc5c(c4)CN(C4CN(CC6Cc7ccc8c(C9CCC(=O)NC9=O)noc8c7C6)C4)C5)n3)C2)C1=O (stereo partly shown) [Compound 47]	BTK degradation in OCI-LY10 cells Dmax (BTK; OCI-LY10 cells): >90%; IC50 [2]: 0.62 nM
			CN1CCN([C@@H]2CCCN(c3cnc(C(N)=O)c(Nc4ccc(C5CCN(CC6Cc7ccc8c(C9CCC(=O)NC9=O)noc8c7C6)CC5)cc4)n3)C2)C1=O (stereo partly shown) [Compound 90]	Mouse liver microsome Residuals at 60 min [1]: 54.63%; AUC (Mouse pharmacokinetics; Mouse i.g. 10 mpk): 18944 ng·h/mL; Cmax (Mouse pharmacokinetics; Mouse i.g. 10 mpk): 2550 ng/mL; F (Mouse pharmacokinetics; Mouse i.g. 10 mpk): 21.0%; t1/2 (Mouse pharmacokinetics; Mouse i.g. 10 mpk): 3 h; AUC (Mouse pharmacokinetics; Mouse i.v. 1 mpk): 8882 ng·h/mL; Cl (Mouse pharmacokinetics; Mouse i.v. 1 mpk): 1.83 mL/min/kg; t1/2 (Mouse pharmacokinetics; Mouse i.v. 1 mpk): 2.7 h; BTK degradation in OCI-LY10 cells Dmax (BTK; OCI-LY10 cells): >90%; IC50 (TMD8-BTK(C481S) cells): 1.2 nM; IC50 (OCI-LY10 cells; 72 h incubation): < 0.31 nM
> 90%	< 0.31 nM	0.31 nM	CN1CCN([C@@H]2CCCN(c3cnc(C(N)=O)c(Nc4ccc(C5CCN(CC6CN(c7cc8onc(C9CCC(=O)NC9=O)c8c8ccccc78)C6)CC5)cc4)n3)C2)C1=O (stereo partly shown) [Compound 96]	
> 90%		0.78 nM	NC(=O)c1ncc(N2CCCCC2)nc1Nc1ccc(C2CCN(C[C@@H]3CCC(n4ccc5c6c(C7CCC(=O)NC7=O)noc6ccc54)C3)CC2)cc1 (stereo partly shown) [Compound 97]	
			NC(=O)c1ncc(N2CCCCC2)nc1Nc1ccc(C2CCN(C[C@@H]3CC[C@@H](n4ccc5c6c(C7CCC(=O)NC7=O)noc6ccc54)C3)CC2)cc1 (stereo partly shown) [Compound 104]	IC50 (TMD8-BTK(C481S) cells; 72 h): 16 nM; TGI d 17 (TMD-8 xenograft tumors): 96.0%; TV on d 0 Mean ± SD (TMD-8 xenograft tumors): 226 ± 27 mm^3; TV on d 12 Mean ± SD (TMD-8 xenograft tumors): 286 ± 77 mm^3; TV on d 15 Mean ± SD (TMD-8 xenograft tumors): 269 ± 61 mm^3
			NC(=O)c1ncc(N2CCCCC2)nc1Nc1ccc(C2CCN(C[C@@H]3CC[C@H](n4ccc5c6c(C7CCC(=O)NC7=O)noc6ccc54)C3)CC2)cc1 (stereo partly shown) [Compound 105]	IC50 (TMD8-BTK(C481S) cells; 72 h): 6.9 nM; TGI d 17 (TMD-8 xenograft tumors): 95.4%; TV on d 0 Mean ± SD (TMD-8 xenograft tumors): 226 ± 28 mm^3; TV on d 12 Mean ± SD (TMD-8 xenograft tumors): 253 ± 36 mm^3; TV on d 15 Mean ± SD (TMD-8 xenograft tumors): 229 ± 49 mm^3

SMILES	Dmax (BTK; OCI-Ly10, OCI-LY10 cells)	IC50 (OCI-LY10 cells; [3])	IC50 ([2]; 72 h)	further results
CN1CCN([C@@H]2CCCN(c3cnc(C(N)=O)c(Nc4ccc(N5CCC(N6Cc7ccc8c(C9CCC(=O)NC9=O)noc8c7C6)CC5)cc4)n3)C2)C1=O (stereo partly shown) [Compound 30]		< 0.31 nM		Dmax (BTK; OCI-LY10 cells): > 90%; IC50 [2]: 0.44 nM
